# Test results: patent US5386017A, “Alkenes for producing chemiluminescent 1, 2-dioxetane compounds” (priority 1990, dated 1995)
# Tests used:
# [1] = 25° C.; cited from earlier work
# [2] = tested on: Aryl esterase (carboxylic ester hydrolase) from porcine liver; experiment: Enzymatic triggering of chemiluminescence with aryl esterase; format: biochemical; conditions: for effect of competing substrate on light intensity of dioxetane 2e reaction: 10 μL of […] added at maximum emission, pH 7.6 phosphate buffer, 37° C.
# Protocol: A secondary stock solution of the acetate-protected dioxetane 2e was made by evaporating an aliquot of the methylene chloride stock equivalent to 10 micromoles of dioxetane and dissolving in 5.0 mL of 2-methoxyethanol to give a final concentration of 0.002M. […] Buffer solutions prepared in distilled water were 0.05M phosphate pH 7.6 and 8.0, 0.02M Tris (tris-hydroxymethylaminomethane maleate) pH 7.6, and pH 9.0 phosphate/borate buffer. Aryl esterase (also called carboxylic ester hydrolase (P-5221)) from porcine liver was purchased from Sigma Chemical Co. as a suspension of 11 mg of protein per mL in 3.2M (NH4)2 SO4 solution pH 8.0. Each mg of protein is equivalent to 260 Units, where 1 Unit is defined as the amount which will hydrolyze 1 micromole of ethyl butyrate in 1 minute at pH 8.0, 25° C. […] Injection of 1 μL of (0.26 units) of aryl esterase to the stirred solution caused a chemiluminescent signal to appear. The intensity reached a maximum at about 3 minutes and decayed over a 30 minute period.
# 3.) When distilled water was substituted for the Tris buffer, no chemiluminescence signal was observed, but on adding Tris buffer to this solution light emission similar to that above was produced. […] Addition of untreated enzyme preparation to this solution again produced light. […] The emission could be totally extinguished by addition of sufficient SDS. The decrease in light emission is not due to photophysical quenching of the excited state since thermal decomposition in the same solvent system at elevated temperatures results in readily detectable chemiluminescence.
# This type of behavior explains the effect of the addition of the known esterase substrates α-naphthyl acetate and β-naphthyl acetate. […] A solution of 25 μL of the dioxetane stock (0.002M) in 3 mL of pH 7.6 phosphate buffer maintained at 37° C. was treated wtih 5μL of the enzyme to initiate the chemiluminescence. At the point of maximum emission 10 μL of 0.011M solution of either α- or β-naphthyl acetate were added.
# [3] = format: physicochemical; conditions: for Ea: activation energy for decomposition in xylene; for log A / k (sec^-1) at 25° C. / t1/2 at 25° C.: decomposition in xylene
# Protocol: Rates of dioxetane decomposition were monitored by the decay of chemiluminescence of aerated solutions. A cylindrical Pyrex vial equipped with magnet stir bar was filled with 3-4 mL of the reaction solvent, sealed with a Teflon-lined screw cap and placed in the thermostatted sample block of the chemiluminescence-measuring apparatus (Black Box). Temperature control was provided by an external circulating water bath. Appropriate values for the instrument gain and optical slit size were selected. […]. The vial was sealed with a Teflon-lined screw cap to prevent evaporation when high temperatures were used. Measurement of the signal was begun by opening the shutter. The chemiluminescent decay was generally recorded for at least three half-lives. Calculation of the first-order rate constant, k, from the In(Intensity) vs. time data was performed by a computer program utilizing a standard least-squares treatment. The correlation coefficient, r, was typically at least 0.999 and varied less than 5% between replicate samples. The observed rate was not measurably concentration dependent.
# Activation parameters for decomposition of the dioxetanes were calculated from plots of In k vs. l/T (Arrhenius eq.) or In k/t vs. l/T (Eyring eq.) by a standard least-squares linear regression analysis.
# [4] = 0.26 units aryl esterase, pH 7.6 Tris buffer, 25° C.
Compound,Ea [3],log A [3],k (sec^-1) at 25° C. [3] [s⁻¹],t1/2 at 25° C. [3] [yrs],also measured
Oc1ccc(C23OCCOC2(c2ccccc2)OO3)cc1 (centres unmarked) [deprotonated dioxetane (X=O^-)],–,–,–,–,decomposition rate relative to the protonated form (X=OH) [1]: 5.7×10^6 times faster
"COC1(c2ccc3cc(OC(C)=O)ccc3c2)OOC12C1CC3CC(C1)CC2C3 (centres unmarked) [Dioxetane 2e, 4-(6-Acetoxy-2-naphthyl)-4-methoxyspiro[1,2-dioxetane-3,2' -adamantane]]",–,–,–,–,"chemiluminescence signal without enzyme ([2]; 0.3 μmol in 3.0 mL pH 7.6 Tris buffer, 25° C., before enzyme): no chemiluminescence signal was detected; period of decay of chemiluminescence [2, 4]: 30 min; time to maximum chemiluminescence intensity [2, 4]: about 3 minutes; duration of thermal chemiluminescence ([3]; aliquot in 3 mL o-xylene at 95° C.): persisted for several hours"
COC1(c2ccc3cc(O[Si](C)(C)C(C)(C)C)ccc3c2)OOC12C1CC3CC(C1)CC2C3 (centres unmarked) [Dioxetane 2c],27.0,11.7,8.72e-09,2.5,–
"CCCCCCCCCCCCOS(=O)(=O)[O-].[Na+] [sodium lauryl sulfate (SDS), sodium lauryl sulfate, reference compound]",–,–,–,–,"effect of enzyme inhibitor on light emission ([2]; added at maximum emission, Tris buffer, 1.5 μL enzyme): irreversible decrease in the intensity"
"COC1(c2ccc3ccccc3c2)OOC12C1CC3CC(C1)CC2C3 (centres unmarked) [Dioxetane 2a, 4-Methoxy-4-(2-naphthyl)spiro[1,2-dioxetane-3,2'-adamantane]]",29.7,13.2,3.17e-09,6.9,–
"CC(=O)Oc1cccc2ccccc12 [α-naphthyl acetate, reference compound]",–,–,–,–,effect of competing substrate on light intensity of dioxetane 2e reaction [2]: rapid decrease in light intensity was noted followed by restoration of the original intensity within less than one minute
"CC(=O)Oc1ccc2ccccc2c1 [β-naphthyl acetate, reference compound]",–,–,–,–,effect of competing substrate on light intensity of dioxetane 2e reaction [2]: rapid decrease in light intensity was noted followed by restoration of the original intensity within less than one minute
"COC1(c2ccc3cc(O)ccc3c2)OOC12C1CC3CC(C1)CC2C3 (centres unmarked) [Dioxetane 2b, 4-(6-Hydroxy-2-naphthyl)-4-methoxyspiro[1,2-dioxetane-3,2'-adamantane]]",29.7,13.3,3.83e-09,5.7,–
